For assay [1], the target named is T1, NTR1 (Homo sapiens (Human), UniProt P30989). The experiment in a line: Radioligand binding assay NTR1 (example part I). The protocol:
In order to determine the binding affinity of compounds comprising a radiolabel for NTR1, a radioligand binding assay was carried out. A radioligand is a radioactive biochemical substance that is used for diagnosis or for research-oriented study of cellular receptor systems of the body. In […] systems it is often used to quantify the binding of a test molecule to the binding site of radioligand. The higher the affinity of the molecule, the more radioligand is displaced from the binding site. The amount of bound radioligand can be measured by scintillation counting and thereby quantified. This assay is commonly used to calculate binding constants of molecules to receptors.
The NTR1 radioligand binding assay was performed by Cerep (Celle l'Evescault, France; Catalog reference 0109) according to Vita et al., FEBS Lett., 1993, 317, 139-142. NTR1 was prepared from CHO cells recombinantly expressing the human receptor and incubated with 0.05 nM ^125I-(Tyr^3-neurotensin) and serial dilutions of the test compounds. […] The result for each test compound is expressed as IC50 concentration and provides a measure for the affinity of the test compound for NTR1.

Assay [2] has as its target T1, NTR1. The experiment in a line: Functional Ca2+ mobilisation assay (example part I). The assay is classed as cell-based. From the text:
Ca^2+ ions are usually kept at nanomolar levels in the cytosol of cells, and act in a number of signal transduction pathways as second messengers. […] Changes in calcium ion concentration in standard assay protocols can be readily detected with fluorescent dyes that emit light when changes in intracellular Ca^2+ ion concentration occur. Given the transient nature of these responses, they are often read with instrumentation that has ‘inject and read’ capability.
(§1) HT29 or NTR1-expressing HEK293 cells were trypsinized and seeded into black flat clear-bottom 96-well plates (Corning, Amsterdam, The Netherlands) at […] cells per well. After 24 h incubation at 37° C. and 5% CO2, cells were washed twice with wash buffer (130 mM NaCl, 5 mM KCl, 10 mM Hepes, 2 mM CaCl2, 10 mM Glucose, pH 7.4) and loaded with 100 μl of Ca5 dye (Molecular Devices, Biberach, Germany) for 1 h at 37° C. and 5% CO2. For agonist assays, serial dilutions of agonistic substances were added to the cells loaded with dye and the change of the fluorescent signal was recorded continually for approx. 90 s using a FlexStation II (Molecular Devices, Biberach, Germany). Addition of wash buffer served as a control. Thus, EC50 concentrations for each conjugate were computed and provided a measure for the potency of the substance. For antagonist assays, cells loaded with 100 μl of Ca5-dye were pre-incubated with serial dilutions of antagonistic substances for 30 min, before the EC80-concentration of agonist was added to the cells and the change of the fluorescent signal was recorded continually for approx. 90 s. Thus, IC50 concentrations were computed for each conjugate and provided a measure for the inhibitory activity of the conjugates at the NTR1.
In general terms: A change in cytosolic calcium serves as a functional read-out for many receptors and channels.

Assay [3] addresses T1, NTR1. In words: Functional Ca2+ mobilisation assay (example part II). The assay is classed as cell-based. Particulars: antagonist assay.
Text: Ca^2+ ions are usually kept at nanomolar levels in the cytosol of cells, and act in a number of signal transduction pathways as second messengers. […] Changes in calcium ion concentration in standard assay protocols can be readily detected with fluorescent dyes that emit light when changes in intracellular Ca2^+ ion concentration occur. Given the transient nature of these responses, they are often read with instrumentation that has ‘inject and read’ capability.
as §1, with “compound” for “conjugate”, “compounds” for “conjugates”

Setting [4] is: 0.05 nM 125I-(Tyr3-neurotensin), 60 min at 4° C., read-out: IC50.
Setting [5] is: agonist assay, * bell-shaped curves, EC50 from ascending part of the curve, read-out: Agonistic Effect EC50.
[6] abbreviates: antagonist assay, 30 min pre-incubation, EC80-concentration of agonist, read-out: Antagonistic Effect IC50.

Like-named read-outs stand apart in the source and are kept apart here.

T1 sequence (P30989 whole entry): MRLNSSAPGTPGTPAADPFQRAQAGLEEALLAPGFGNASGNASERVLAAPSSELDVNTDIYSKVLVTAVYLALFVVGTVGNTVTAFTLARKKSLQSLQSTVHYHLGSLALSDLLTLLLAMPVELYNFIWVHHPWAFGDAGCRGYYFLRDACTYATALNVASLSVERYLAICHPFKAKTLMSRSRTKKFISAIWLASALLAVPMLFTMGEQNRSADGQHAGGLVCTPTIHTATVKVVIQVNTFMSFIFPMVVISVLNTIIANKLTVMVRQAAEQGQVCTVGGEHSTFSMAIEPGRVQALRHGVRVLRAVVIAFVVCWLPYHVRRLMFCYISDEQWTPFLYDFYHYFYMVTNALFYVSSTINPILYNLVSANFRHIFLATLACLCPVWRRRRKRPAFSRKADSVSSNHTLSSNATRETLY

As a reminder, the IC50 is the concentration that inhibits the measured activity by half. By EC50 is commonly meant the concentration giving half of the maximal effect. Take `COc1cccc(OC)c1-c1cc(C(=O)NC2(C(=O)O)C3CC4CC(C3)CC2C4)nn1-c1ccc(C(=O)N(C)CCCN(C)CCCN(C)C(=O)CCCNC(=O)[C@H](CCCCNC(=O)CN2CCN(CC(=O)O)CCN(CC(=O)O)CCN(CC(=O)O)CC2)NC(=O)CCCC(=O)N(C)CCCN(C)CCCN(C)C(=O)c2ccc(-n3nc(C(=O)NC4(C(=O)O)C5CC6CC(C5)CC4C6)cc3-c3c(OC)cccc3OC)c(C(C)C)c2)cc1C(C)C` (stereo partly drawn) [(13), 1206-Glutar-Lys(DOTA)-GABA-1206]: the half-maximal inhibitory concentration (IC50) on NTR1 [1] (setting [4]) came out at 2.2 nM; on NTR1 [2] (setting [6]), 6.1 nM. Besides, the EC50 on NTR1 [2] (setting [5]) is above 50000 nM.

For `COc1cccc(OC)c1-c1cc(C(=O)NC2(C(=O)O)C3CC4CC(C3)CC2C4)nn1-c1ccc(C(=O)N(C)CCCN(C)CCCN(C)C(=O)CCCC(=O)NCCCOCCOCCOCCCNC(=O)CCC(=O)N[C@@H](CCCCNC(=O)CN2CCN(CC(=O)O)CCN(CC(=O)O)CCN(CC(=O)O)CC2)C(=O)NCCCOCCOCCOCCCNC(=O)CCC(=O)NCCCC(=O)N[C@@H](CCCNC(=N)N)C(=O)N[C@@H](CCCNC(=N)N)C(=O)N2CCC[C@H]2C(=O)N[C@@H](Cc2ccc(O)cc2)C(=O)N[C@H](C(=O)N[C@@H](CC(C)C)C(=O)O)C(C)(C)C)cc1C(C)C` (stereo partly drawn) [(16), 1206-Glutar-Ttds-Lys(DOTA)-Ttds-GABA-Arg-Arg-Pro-Tyr-Tle-Leu-OH], the IC50 on NTR1 [1] is 0.14 nM; on NTR1 [2], 3.8 nM. This compound displayed an EC50 on NTR1 [2] of 4 nM. Besides, at NTR1 [2] (agonist assay), the “shape of EC50 curve” value is “bell-shaped EC50 curves”.

In turn, `COc1cccc(OC)c1-c1cc(C(=O)NC2(C(=O)O)C3CC4CC(C3)CC2C4)nn1-c1ccc(C(=O)N(C)CCCN(C)CCCN(C)C(=O)CCN2C(=O)CC(SC[C@H](NC(=O)CCC(=O)NCCCOCCOCCOCCCNC(=O)CCC(=O)NCCCOCCOCCOCCCNC(=O)CCC(=O)NCCCOCCOCCOCCCNC(=O)[C@H](CCCCNC(=O)CN3CCN(CC(=O)O)CCN(CC(=O)O)CCN(CC(=O)O)CC3)NC(=O)CCC(=O)NCCCOCCOCCOCCCNC(=O)CCC(=O)NCCCOCCOCCOCCCNC(=O)CCC(=O)NCCCOCCOCCOCCCNC(=O)CCCNC(=O)[C@@H](NC(=O)[C@H](CCCNC(=N)N)NC(=O)[C@H](C)NC(=O)[C@@H](NC(=O)[C@H](CCCCN)NC(=O)[C@H](CCC(N)=O)NC(=O)[C@H](C)NC(=O)[C@H](CC(C)C)NC(=O)[C@@H](NC(=O)[C@H](CCC(N)=O)NC(=O)[C@H](CC(C)C)NC(=O)[C@H](CC(=O)O)NC(=O)CNC(=O)[C@H](CCCNC(=N)N)NC(=O)[C@H](CC(C)C)NC(=O)[C@H](CC(N)=O)NC(=O)[C@@H]3CCCN3C(=O)[C@@H](NC(=O)[C@H](C)NC(=O)[C@H](CC(N)=O)NC(C)=O)C(C)C)C(C)C)C(C)C)[C@@H](C)O)C(N)=O)C2=O)cc1C(C)C` (stereo partly drawn) [(23)] showed an IC50 at NTR1 [1] of 6.7 nM. On NTR1 [2], this compound gave an EC50 above 50000 nM and an IC50 of 15 nM.

On to `COc1cccc(OC)c1-c1cc(C(=O)NC2(C(=O)NCCNC(=O)CN3CCN(CC(=O)O)CCN(CC(=O)O)CCN(CC(=O)O)CC3)C3CC4CC(C3)CC2C4)nn1-c1ccc(C(=O)N(C)CCCN(C)C)cc1C(C)C` (stereo not drawn) [(XVII), 5-(2,6-Dimethoxy-phenyl)-1-{4-[(3-dimethylamino-propyl)-methyl-carbamoyl]-2-isopropyl-phenyl}-1H-pyrazole-3-carboxylic acid [2-(2-DOTA-amino-ethylcarbamoyl)-adamantan-2-yl]-amide, reference compound], for which the “IC50 [nM] Ca” value on NTR1 [3] is given as “inactivity”.

On to `COc1cccc(OC)c1-c1cc(C(=O)NC2(C(=O)O)C3CC4CC(C3)CC2C4)nn1-c1ccc(C(=O)N(C)CCCN(C)CCCN(C)C(=O)CCCNC(=O)CCC(=O)NCCCOCCOCCOCCCNC(=O)[C@H](CCCCNC(=O)CN2CCN(CC(=O)O)CCN(CC(=O)O)CCN(CC(=O)O)CC2)NC(=O)CCC(=O)NCCCOCCOCCOCCCNC(=O)CCCC(=O)N(C)CCCN(C)CCCN(C)C(=O)c2ccc(-n3nc(C(=O)NC4(C(=O)O)C5CC6CC(C5)CC4C6)cc3-c3c(OC)cccc3OC)c(C(C)C)c2)cc1C(C)C` (stereo partly drawn) [(12), 1206-Glutar-Ttds-Lys(DOTA)-Ttds-GABA-1206], for which the IC50 on NTR1 [1] (setting [4]) and on NTR1 [2] (setting [6]) was 2.5 nM each time. Moreover, the EC50 at NTR1 [2] (setting [5]) was above 50000 nM.

In the case of `COc1cccc(OC)c1-c1cc(C(=O)NC2(C(=O)O)C3CC4CC(C3)CC2C4)nn1-c1ccc(C(=O)N(C)CCCN(C)CCCN(C)C(=O)CCCC(=O)NCCCC[C@H](NC(=O)CCC(=O)NCCCOCCOCCOCCCNC(=O)CCC(=O)NCCCOCCOCCOCCCNC(=O)CCC(=O)NCCCOCCOCCOCCCNC(=O)[C@H](CCCCNC(=O)CN2CCN(CC(=O)O)CCN(CC(=O)O)CCN(CC(=O)O)CC2)NC(=O)CCC(=O)NCCCOCCOCCOCCCNC(=O)CCC(=O)NCCCOCCOCCOCCCNC(=O)CCC(=O)NCCCOCCOCCOCCCNC(=O)CCCNC(=O)[C@@H](NC(=O)[C@H](CCCNC(=N)N)NC(=O)[C@H](C)NC(=O)[C@@H](NC(=O)[C@H](CCCCN)NC(=O)[C@H](CCC(N)=O)NC(=O)[C@H](C)NC(=O)[C@H](CC(C)C)NC(=O)[C@@H](NC(=O)[C@H](CCC(N)=O)NC(=O)[C@H](CC(C)C)NC(=O)[C@H](CC(=O)O)NC(=O)CNC(=O)[C@H](CCCNC(=N)N)NC(=O)[C@H](CC(C)C)NC(=O)[C@H](CC(N)=O)NC(=O)[C@@H]2CCCN2C(=O)[C@@H](NC(=O)[C@H](C)NC(=O)[C@H](CC(N)=O)NC(C)=O)C(C)C)C(C)C)C(C)C)[C@@H](C)O)C(N)=O)cc1C(C)C` (stereo partly drawn) [(22)], the IC50 on NTR1 [1] turned out to be 9.1 nM; on NTR1 [2], 21 nM. This compound also had a half-maximal effective concentration (EC50) at NTR1 [2] above 50000 nM.

Regarding `COc1cccc(OC)c1-c1cc(C(=O)NC2(C(=O)O)C3CC4CC(C3)CC2C4)nn1-c1ccc(C(=O)N(C)CCCN(C)CCCN(C)C(=O)CCCC(=O)NCCCCCC(=O)N[C@@H](CCCCNC(=O)CN2CCN(CC(=O)O)CCN(CC(=O)O)CCN(CC(=O)O)CC2)C(=O)N[C@@H](CCCCNC(=O)CCCC(=O)N(C)CCCN(C)CCCN(C)C(=O)c2ccc(-n3nc(C(=O)NC4(C(=O)O)C5CC6CC(C5)CC4C6)cc3-c3c(OC)cccc3OC)c(C(C)C)c2)C(N)=O)cc1C(C)C` (stereo partly drawn) [(14), 1206-Glutar-Ahx-Lys(DOTA)-(ε-Lys-NH2)-Glutar-1206], the results for the IC50 on NTR1 [1] (setting [4]) and on NTR1 [2] (setting [6]) were 2.4 nM and 2.3 nM, respectively. Also, the EC50 on NTR1 [2] (setting [5]) is above 50000 nM.

On NTR1 [3], `COc1cccc(OC)c1-c1cc(C(=O)N[C@H](C(=O)O)C2CCCCC2)nn1-c1ccc(C(=O)N(C)CCCN(C)CCCN(C)C(=O)CN2CCN(CC(=O)O)CCN(CC(=O)O)CCN(CC(=O)O)CC2)cc1C(C)C` [(IVa), (S)-2-{[1-{4-[(3-{[3-(DOTA-methyl-amino)-propyl]-methyl-amino}-propyl)-methyl-carbamoyl]-2-isopropyl-phenyl}-5-(2,6-dimethoxy-phenyl)-1H-pyrazole-3-carbonyl]-amino}-cyclohexyl-acetic acid] came in with an IC50 of 125 nM.

These data come from patent US10799605B2 (3B PHARMACEUTICALS GMBH, priority 2014, dated 2020).
